Measured values as given in the supplement of paper PMC10307832.

Columns and labels:
Test in all cases: relative viability (nuclei count vs DMSO), 5 days (fraction); higher = more cells survive
[1] = compound: Cc1ccc(-n2nc(C(C)(C)C)cc2NC(=O)Nc2ccc(OCCN3CCOCC3)c3ccccc23)cc1 [Doramapimod] + CS(=O)(=O)CCNCc1ccc(-c2ccc3ncnc(Nc4ccc(OCc5cccc(F)c5)c(Cl)c4)c3c2)o1 [Lapatinib] (partner 2 µM)
Summary of the method: (§1)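 Dosing by pin tool came one day after lung cancer cell lines were seeded in 1536-well plates, using either one drug or a fixed anchor-drug dose plus five library-drug doses (not always all listed) in √10 steps. After 5 days, nuclei were counted on 4× images. Relative viability is treated-well nuclei count divided by vehicle-well nuclei count, and values are medians of duplicate plates.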

[2] = compound: Cn1c(Nc2ccc(C(F)(F)F)cc2)nc2cc(Oc3ccnc(-c4ncc(C(F)(F)F)[nH]4)c3)ccc21 [RAF265] + O=C(c1cc(Cc2n[nH]c(=O)c3ccccc23)ccc1F)N1CCN(C(=O)C2CC2)CC1 [Olaparib] (partner 8 µM)
Summary of the method: as §1

[3] = compound: C1=CC=C2C(=C1)C=CC(=C2SSC3=C(C=CC4=CC=CC=C43)O)O [IPA-3] + N=C(N)NC(=N)NCCc1ccccc1 [Phenformin] (partner 250 µM)
Summary of the method: as §1

[4] = compound: Cn1c(Nc2ccc(C(F)(F)F)cc2)nc2cc(Oc3ccnc(-c4ncc(C(F)(F)F)[nH]4)c3)ccc21 [RAF265] + N=C(N)NC(=N)NCCc1ccccc1 [Phenformin] (partner 250 µM)
Summary of the method: as §1

Row | Cell Line | relative viability ([1]; first compound 0.02 µM) | relative viability ([1]; first compound 0.06325 µM) | relative viability ([1]; first compound 0.2 µM) | relative viability ([1]; first compound 0.6325 µM) | relative viability ([1]; first compound 2 µM) | relative viability ([2]; first compound 0.01 µM) | relative viability ([2]; first compound 0.03162 µM) | relative viability ([2]; first compound 0.1 µM) | relative viability ([2]; first compound 0.3162 µM) | relative viability ([2]; first compound 1 µM) | relative viability ([3]; first compound 0.2 µM) | relative viability ([3]; first compound 0.6325 µM) | relative viability ([3]; first compound 2 µM) | relative viability ([3]; first compound 6.325 µM) | relative viability ([3]; first compound 20 µM) | relative viability ([4]; first compound 0.01 µM) | relative viability ([4]; first compound 0.03162 µM) | relative viability ([4]; first compound 0.1 µM) | relative viability ([4]; first compound 0.3162 µM) | relative viability ([4]; first compound 1 µM)
1 | EBC-1 | 0.255 | 0.198 | 0.17 | 0.209 | 0.197 | 0.721 | 0.64 | 0.639 | 0.586 | 0.432 |  |  |  |  |  |  |  |  |  | 
2 | IA-LM | 0.897 |  | 0.841 | 0.763 | 0.669 | 0.745 | 0.81 | 0.832 | 0.681 | 0.61 |  |  |  |  |  |  |  |  |  | 
3 | LCLC-103H |  |  |  |  |  | 0.759 | 0.717 | 0.75 | 0.595 | 0.444 | 0.299 | 0.344 | 0.365 | 0.354 | 0.372 | 0.333 | 0.346 | 0.305 | 0.319 | 0.285
4 | NCI-H441 |  |  |  |  |  | 0.555 | 0.512 | 0.539 | 0.445 | 0.394 | 1 | 0.715 | 0.838 | 0.742 | 0.513 | 0.914 | 0.833 | 0.725 | 0.628 | 0.633
5 | NCI-H522 |  |  |  |  |  | 0.791 | 0.695 | 0.737 | 0.728 | 0.57 | 0.648 | 0.657 | 0.582 | 0.697 | 0.76 | 0.677 | 0.648 | 0.655 | 0.33 | 0.569
6 | NCI-H1299 | 0.991 | 0.952 | 0.956 | 0.972 | 0.925 | 0.984 | 0.906 | 0.949 | 0.625 | 0.664 |  |  |  |  |  |  |  |  |  | 
7 | NCI-H1563 | 0.935 | 0.923 | 1.04 | 0.681 | 0.907 |  |  |  |  |  | 0.703 | 0.644 | 0.655 | 0.727 | 0.735 | 0.676 | 0.674 | 0.66 | 0.64 | 0.623
8 | NCI-H1623 |  |  |  |  |  |  |  |  |  |  | 0.605 | 0.583 | 0.618 | 0.563 | 0.655 | 0.652 | 0.578 | 0.646 |  | 0.388
9 | NCI-H1648 |  |  |  |  |  | 1.43 | 0.891 | 0.537 | 0.78 | 0.279 |  |  |  |  |  |  |  |  |  | 
10 | NCI-H1703 | 1.11 | 0.983 | 0.949 | 0.987 | 0.716 | 0.358 | 0.416 | 0.342 | 0.33 | 0.273 |  |  |  |  |  |  |  |  |  | 
11 | NCI-H2342 |  |  |  |  |  | 0.377 | 0.37 | 0.468 | 0.395 | 0.348 | 0.629 | 0.619 | 0.568 | 0.825 | 0.731 | 0.502 | 0.617 | 0.679 | 0.468 | 0.549
12 | SW 900 |  |  |  |  |  | 0.89 | 0.725 | 0.79 | 0.716 | 0.27 | 0.783 | 0.575 | 0.556 | 0.784 | 0.677 | 0.73 | 0.491 | 0.665 | 0.283 | 0.293
